Test results: patent US8906868B2, “Aminoglycoside derivatives” (Rempex Pharmaceuticals, Inc., priority 2010, dated 2014)
≈ marks a conversion by molar mass, not a printed value. Where two headings read alike, the source gives them in different places.

Key:
EC1001 acc(6′)-Ib = assay: microbe, parasite or virus in culture; format: cell-based, Escherichia coli; details: Table 4; for MIC: Escherichia coli, read-out: Compound MIC on Bacterial Strains: Escherichia coli EC1001 acc(6′)-Ib
Protocol: (§1) To compare microbiological activity of the test compounds, minimum inhibitory concentrations (MIC.s) were determined. Antibiotic MICs were obtained using the broth microdilution method according to Clinical and Laboratory Standards Institute (CLSI) approved guidelines (Methods for dilution antimicrobial susceptibility tests for bacteria that grow aerobically; approved standard—7th ed. CLSI document M7-A7. Clinical and Laboratory Standards Institute, Wayne, Pa., incorporated herein by reference in its entirety). Antibiotics were dissolved as specified by CLSI (Performance standards for antimicrobial susceptibility testing; Seventeenth informational supplement. CLSI document M100-S17. Clinical and Laboratory Standards Institute, Wayne, Pa., incorporated herein by reference in its entirety), and were serially diluted 2-fold in cation adjusted Mueller Hinton Broth (CaMHB) at 2× concentration. Bacterial inoculums were prepared in CaMHB by suspension of a colony from an agar plate that was prepared the previous day to obtain a final concentration of 5×10^5CFU/ml. The plates were incubated for 18 hours at 35° C. […] MIC.s were determined by reading the turbidity of plate wells using a SpectraMax Plus384 plate reader (Molecular Devices, Sunnyvale, Calif., USA) at 600 nm and were confirmed by visual inspection.

[1] = system: ECM6007 aac(6′) + aph(2″); assay: microbe, parasite or virus in culture; format: cell-based, Escherichia coli; details: Table 4; for MIC: Escherichia coli, 18 h, read-out: Compound MIC on Bacterial Strains: Escherichia coli ECM6007 aac(6′) + aph(2″)
Protocol: as §1

ACM1005 ATCC 19004 = assay: MIC, broth microdilution; format: cell-based, Acinetobacter baumannii; details: Table 4
Protocol: as §1

ACM1006 acc(6′)-Ib = assay: microbe, parasite or virus in culture; format: cell-based, Acinetobacter baumannii; details: Table 4
Protocol: as §1

[2] = system: Escherichia coli (ATCC 25922); assay: MIC, broth microdilution; details: for MIC: Escherichia coli
[3] = system: Staphylococcus aureus (ATCC 29213); assay: MIC, broth microdilution; details: Staphylococcus aureus
[4] = system: Klebsiella pneumonia (ATCC 43816); assay: MIC, broth microdilution; details: Klebsiella pneumoniae, ATCC43816, read-out: Compound MIC on Bacterial Strains: K. pneumonia ATCC 43816
[5] = system: Pseudomonas aeruginosa (ATCC 27853); assay: MIC, broth microdilution; details: Pseudomonas aeruginosa
[6] = system: Acinetobacter baumannii (ATCC 19606); assay: MIC, broth microdilution; details: Acinetobacter baumannii, ATCC19606, read-out: Compound MIC on Bacterial Strains: A. baumannii ATCC 19606
ECM6003 rmtB = assay: microbe, parasite or virus in culture; format: cell-based, Escherichia coli; details: for MIC: Escherichia coli, read-out: Compound MIC on Bacterial Strains: ECM6003 rmtB
Protocol: as §1
(§2) Activity of the test compounds was determined using QC strains and strains with known aminoglycoside resistance mechanisms (TABLE 3). This specific panel contained strains expressing enzymes that covalently modify N2″, N3 and N3′ positions.
The panel also contained a strain expressing ribosomal RNA methylase, RmtB.

ECM6006 aph(3′)-III = assay: microbe, parasite or virus in culture; format: cell-based, Escherichia coli; details: for MIC: Escherichia coli, read-out: Compound MIC on Bacterial Strains: ECM6006 aph(3′)-III
Protocol: as §1, §2

ECM6009 aac(3)-II = assay: microbe, parasite or virus in culture; format: cell-based, Escherichia coli; details: for MIC: Escherichia coli, read-out: Compound MIC on Bacterial Strains: ECM6009 aac(3)-II
Protocol: as §1, §2

ECM6010 ant(2″)-I = assay: microbe, parasite or virus in culture; format: cell-based, Escherichia coli; details: for MIC: Escherichia coli, read-out: Compound MIC on Bacterial Strains: ECM6010 ant(2″)-I
Protocol: as §1, §2

ECM6011 aph(3′)-I = assay: microbe, parasite or virus in culture; format: cell-based, Escherichia coli; details: for MIC: Escherichia coli, read-out: Compound MIC on Bacterial Strains: ECM6011 aph(3′)-I
Protocol: as §1, §2

EC1002 aph(3′)-IV = assay: organism not typed; format: cell-based; details: for MIC: read-out: Compound MIC on Bacterial Strains: EC1002 aph(3′)-IV
Protocol: as §1, §2

PAM3072 aac(6′)-II = assay: microbe, parasite or virus in culture; format: cell-based, Pseudomonas aeruginosa; details: Pseudomonas aeruginosa, Table 5; read-out: Compound MIC on Bacterial Strains: Pseudomonas aeruginosa PAM3072 aac(6′)-II
Protocol: as §1

PAM3073 aac(6′)-I = assay: microbe, parasite or virus in culture; format: cell-based, Pseudomonas aeruginosa; details: Pseudomonas aeruginosa, Table 5; read-out: Compound MIC on Bacterial Strains: Pseudomonas aeruginosa PAM3073 aac(6′)-I
Protocol: as §1

[7] = ATCC25922, read-out: Compound MIC on Bacterial Strains: E. coli ATCC 25922
[8] = ATCC25922, read-out: Compound MIC on Bacterial Strains: Escherichia coli ECM6000 ATCC 25922
[9] = ATCC29213, read-out: Compound MIC on Bacterial Strains: S. aureus ATCC 29213, QC strain, Table 2
[10] = ATCC27853, read-out: Compound MIC on Bacterial Strains: P. aeruginosa ATCC 27853
[11] = ATCC25922, read-out: Compound MIC on Bacterial Strains: ECM6000 ATCC 25922
[12] = ATCC29213, read-out: Compound MIC on Bacterial Strains: Staphylococcus aureus SAM1000 ATCC 29213, Table 5
[13] = ATCC27853, read-out: Compound MIC on Bacterial Strains: Pseudomonas aeruginosa PAM3034 ATCC 27853

Compound | MIC (EC1001 acc(6′)-Ib) [µg/mL] | MIC [1] [µg/mL] | MIC [2, 7] [µg/mL] | MIC [2, 8] [µg/mL] | MIC [3, 9] [µg/mL] | MIC [4] [µg/mL] | MIC [5, 10] [µg/mL] | MIC [6] [µg/mL] | MIC (ECM6006 aph(3′)-III) [µg/mL] | MIC (ECM6009 aac(3)-II) [µg/mL] | MIC (ECM6010 ant(2″)-I) [µg/mL] | MIC (ECM6011 aph(3′)-I) [µg/mL] | MIC (ECM6003 rmtB; Table 3) [µg/mL] | MIC (EC1002 aph(3′)-IV) [µg/mL] | MIC (PAM3072 aac(6′)-II) [µg/mL] | MIC (PAM3073 aac(6′)-I) [µg/mL] | MIC [2, 11] [µg/mL] | MIC [3, 12] [µg/mL] | MIC [5, 13] [µg/mL] | also measured
CN[C@@H]1[C@@H](O)[C@@H](O[C@@H]2[C@@H](O)[C@H](O[C@H]3O[C@H](CN)CC[C@H]3N)[C@@H](N)C[C@H]2NC(=O)[C@@H](O)[C@H](N)CN)OC[C@]1(C)O [Compound 3, (2S,3R)-3,4-diamino-N-((1R,2S,3S,4R,5S)-5-amino-4-((2R,3R,6S)-3-amino-6-(aminomethyl)tetrahydro-2H-pyran-2-yloxy)-2-((2R,3R,4R,5R)-3,5-dihydroxy-5-methyl-4-(methylamino)tetrahydro-2H-pyran-2-yloxy)-3-hydroxycyclohexyl)-2-hydroxybutanamide] | > 8 | < 1 | < 1 | 1 to 8 (≈ 1.77 to 14.1 µM) | < 1 | < 1 | < 1 | > 8 |  |  |  |  |  |  |  |  |  |  |  | MIC (ACM1005 ATCC 19004; Acinetobacter baumannii, ATCC19004, read-out: Compound MIC on Bacterial Strains: Acinetobacter baumannii ACM1005 ATCC 19004): 1 to 8 µg/mL (≈ 1.77 to 14.1 µM); MIC (ACM1006 acc(6′)-Ib; Acinetobacter baumannii, read-out: Compound MIC on Bacterial Strains: Acinetobacter baumannii ACM1006 acc(6′)-Ib): 1 to 8 µg/mL (≈ 1.77 to 14.1 µM)
NC[C@@H]1CCC(N)[C@@H](OC2C(O)C(O[C@H]3OC(CO)C(O)[C@H](N)C3O)[C@H](NC(=O)C3(O)CNNC3)C[C@@H]2N)O1 (stereo partly shown) [Compound 28] |  |  |  |  |  |  |  |  |  |  |  |  |  |  |  |  |  |  |  | fold increased resistance conferred by RmtB (ECM6003 rmtB; strain expressing ribosomal RNA methylase RmtB): 8 fold
CN[C@@H]1[C@@H](O)[C@@H](O[C@@H]2[C@@H](O)[C@H](O[C@H]3O[C@H](CNCCO)CC[C@H]3N)[C@@H](N)C[C@H]2NC(=O)[C@@H](O)CNN)OC[C@]1(C)O [Compound 41, (S)—N-((1R,2S,3S,4R,5S)-5-amino-4-((2R,3R,6S)-3-amino-6-((2-hydroxyethylamino)methyl)tetrahydro-2H-pyran-2-yloxy)-2-((2R,3R,4R,5R)-3,5-dihydroxy-5-methyl-4-(methylamino)tetrahydro-2H-pyran-2-yloxy)-3-hydroxycyclohexyl)-3-hydrazinyl-2-hydroxypropanamide] | > 8 | 1 to 8 | 1 to 8 (≈ 1.68 to 13.4 µM) | 1 to 8 (≈ 1.68 to 13.4 µM) | 1 to 8 (≈ 1.68 to 13.4 µM) | 1 to 8 (≈ 1.68 to 13.4 µM) | > 8 | > 8 | > 8 | > 8 | 1 to 8 (≈ 1.68 to 13.4 µM) | 1 to 8 (≈ 1.68 to 13.4 µM) | > 8 | 1 to 8 (≈ 1.68 to 13.4 µM) | > 8 | > 8 | 1 to 8 (≈ 1.68 to 13.4 µM) | 1 to 8 (≈ 1.68 to 13.4 µM) | > 8 | 
CNC[C@@H]1CC[C@@H](N)[C@@H](O[C@H]2[C@H](O)[C@@H](O[C@H]3OC[C@](C)(O)[C@H](NC)[C@H]3O)[C@H](N)C[C@@H]2N)O1 [Micronomicin, reference compound] |  |  |  |  |  |  |  |  |  |  |  |  |  |  |  |  |  |  |  | Compound MIC on Bacterial Strains: ECM6006 aph(3′)-III (ECM6006 aph(3′)-III): B (key: A: MIC of 1 μg/ml or less; B: MIC of greater than 1 μg/ml to 8 μg/ml; MIC of greater than 8 μg/ml); Compound MIC on Bacterial Strains: ECM6009 aac(3)-II (ECM6009 aac(3)-II): C (key: A: MIC of 1 μg/ml or less; B: MIC of greater than 1 μg/ml to 8 μg/ml; MIC of greater than 8 μg/ml); Compound MIC on Bacterial Strains: ECM6010 ant(2″)-I (ECM6010 ant(2″)-I): C (key: A: MIC of 1 μg/ml or less; B: MIC of greater than 1 μg/ml to 8 μg/ml; MIC of greater than 8 μg/ml); Compound MIC on Bacterial Strains: ECM6011 aph(3′)-I (ECM6011 aph(3′)-I): B (key: A: MIC of 1 μg/ml or less; B: MIC of greater than 1 μg/ml to 8 μg/ml; MIC of greater than 8 μg/ml); Compound MIC on Bacterial Strains: ECM6003 rmtB (ECM6003 rmtB; Table 3): C (MIC of greater than 8 μg/ml); Compound MIC on Bacterial Strains: EC1002 aph(3′)-IV (EC1002 aph(3′)-IV): A (key: A: MIC of 1 μg/ml or less; B: MIC of greater than 1 μg/ml to 8 μg/ml; MIC of greater than 8 μg/ml); Compound MIC on Bacterial Strains: Escherichia coli EC1001 acc(6′)-Ib (EC1001 acc(6′)-Ib): C (MIC of greater than 8 μg/ml); Compound MIC on Bacterial Strains: Escherichia coli ECM6007 aac(6′) + aph(2″) [1]: B (MIC of greater than 1 μg/ml to 8 μg/ml); Compound MIC on Bacterial Strains: Acinetobacter baumannii ACM1005 ATCC 19004 (ACM1005 ATCC 19004): A (MIC of 1 μg/ml or less); Compound MIC on Bacterial Strains: Acinetobacter baumannii ACM1006 acc(6′)-Ib (ACM1006 acc(6′)-Ib): C (MIC of greater than 8 μg/ml); Compound MIC on Bacterial Strains: ECM6000 ATCC 25922 ([2]; Table 3): A (MIC of 1 μg/ml or less); Compound MIC on Bacterial Strains: Escherichia coli ECM6000 ATCC 25922 ([2]; Table 4): A (MIC of 1 μg/ml or less)
CN[C@@H]1[C@@H](O)[C@@H](O[C@@H]2[C@@H](O)[C@H](O[C@H]3O[C@H](CN)CC[C@H]3N)[C@@H](N)C[C@H]2NC(=O)[C@@H](O)[C@H](N)CO)OC[C@]1(C)O [Compound 20, (2S,3R)-3-amino-N-((1R,2S,3S,4R,5S)-5-amino-4-((2R,3R,6S)-3-amino-6-(aminomethyl)tetrahydro-2H-pyran-2-yloxy)-2-((2R,3R,4R,5R)-3,5-dihydroxy-5-methyl-4-(methylamino)tetrahydro-2H-pyran-2-yloxy)-3-hydroxycyclohexyl)-2,4-dihydroxybutanamide] |  |  | 1 to 8 (≈ 1.76 to 14.1 µM) |  | 1 to 8 (≈ 1.76 to 14.1 µM) | < 1 | 1 to 8 (≈ 1.76 to 14.1 µM) | > 8 | 1 to 8 (≈ 1.76 to 14.1 µM) | < 1 | 1 to 8 (≈ 1.76 to 14.1 µM) | 1 to 8 (≈ 1.76 to 14.1 µM) | > 8 | 1 to 8 (≈ 1.76 to 14.1 µM) | > 8 | > 8 | 1 to 8 (≈ 1.76 to 14.1 µM) | 1 to 8 (≈ 1.76 to 14.1 µM) | 1 to 8 (≈ 1.76 to 14.1 µM) | 
